Assay results taken from US9351992B2, “Non-anticoagulant polysaccharide compositions” (MOMENTA PHARMACEUTICALS, INC., priority 2007, dated 2016).
Marks after values point to notes of the source that are not given here.

Tested on: C170HM2 human colorectal tumor cells
Experiment: Colon cancer metastasis to the liver (orthotopic liver metastasis model)
Assay type: in vivo, MF1 nude (nu/nu) athymic mice
Protocol: Liver metastasis was initiated by intraperitoneal injection of C170HM2 human colorectal tumor cells into male MF1 nude (nu/nu) athymic mice. 5FU/leucovorin was used as a positive control.
C170HM2 cells were maintained in vitro in RPMI culture medium (Sigma) containing 10% (v/v) heat inactivated fetal bovine serum and 2 mM L-glutamine at 37° C. in 5% CO2 and humidified conditions. Cells from sub-confluent monolayers were harvested with 0.025% EDTA, washed in culture medium and re-suspended in sterile phosphate buffered saline, pH 7.4 (PBS) for in vivo administration. 1.5×10^6 cells in a volume of 1 ml were injected intraperitoneally into 65 mice, and the mice were allocated into treatment groups as below.
Treatment was initiated on day 1 following cell injection and continued until day 35 or until the clinical condition of the animal required termination. One mouse in group 6 was terminated on day 20 due to black tail, bruising, and very pale appearance. Groups and 6 missed one dose on day 5. No adverse affects of the test compounds in mice bearing the tumors were observed.
The study was terminated on day 35, and the tumors in the liver were excised and weighed.

[1] = 25 mg/kg i.v. days 1, 3, 5, 7, calculated in comparison to group 7 (untreated), not group 1
[2] = 25 mg/kg i.v., compared to the untreated control group (group 7)

With 5FU/leucovorin [5 FU/Leu] the “Mean tumor weight” value (25 mg/kg i.v. cycled on days 1, 3, 5, 7, liver tumors day 35) was 0.037 g, the “Mean tumor area (% of vehicle)” value [1] was 15.7 % of vehicle and the “Mean tumor weight (% of vehicle)” value [1] was 11.94* % of vehicle. For the same substance, the “Mean tumor area (mm^2)” value (25 mg/kg i.v. days 1, 3, 5, 7, cross-sectional area, day 35) was 13.12 mm^2, the “decrease in tumor cross-sectional area” value [2] was 84% and the “decrease of tumor weight in the liver” value [2] was “approximately 88%”. The “decrease in tumor size” value (25 mg/kg i.v., compared to the vehicle control group (group 1), not significant) was 62%.
